# Data reported in paper PMC8164609 (Environmental Science and Pollution Research International, 2021).
# Values joined by “and” are separate entries in the source; they are usually repeats but may differ in a detail not shown here. Identical values can stand only once. Like-named read-outs stand apart in the source and are kept apart here.
# What was measured:
# mice = tested on: mice; design: method as in Poul et al. [2009]; details: 20, 200 or 1000 mg/kg twice, 24-h interval, oral gavage; ref Poul et al. [2009]; cited from earlier work
# estrogen receptor = target: estrogen receptor; design: method as in Axon et al. [2012]; details: reporter gene construct in human ERα-positive MCF-7 cells; ref Axon et al. [2012]; read-out: EC50 concentration for estrogen receptor activation; cited from earlier work
# human lymphocytes = details: MTT, cited from earlier work
# MCF-7 cells [1] = experiment: LDH cytotoxicity test; details: 24 h, up to 10^−4 M
# Protocol: Cytotoxicity was assessed by lactate dehydrogenase (LDH) release. For LDH measurement, Pierce LDH Cytotoxicity Assay Kit (Thermo Scientific, Rockford, USA) was used. MCF-7 cells were seeded at 2.8×10^5 in a transparent 96-well plate, and corner cells of the plate were filled with PBS to prevent the edge effect. SF medium containing DMEM without phenol red, 1% charcoal-stripped FBS, and 4 mM L-glutamine were used for this assay. Plates were incubated for 24 h, and then the cells were treated with test compounds at concentrations ranging from 10^−14 to 10^−4 M or vehicle for another 24 h. On day 3, culture supernatant was collected in a separate 96-well plate, and the assay was continued according to the manufacturer’s instructions. Final absorbance was measured with the microplate reader at 490 and 680 nm. […] Vehicle control was 0.1% EtOH or DMSO. All the exposures were in triplicate, and the experiment was carried out twice.
# [2] = tested on: estrogen signaling cascade; design: method as in Datta and Lundin-Schiller [2008]; Axon et al. [2012]; details: ref Datta and Lundin-Schiller [2008]; Axon et al. [2012]; cited from earlier work
# MCF-7 cells [3] = experiment: MCF-7 cell proliferation assay (MTT reduction); assay type: cell-based, human; details: MCF-7 cells, MTT
# Protocol: MCF-7 cell line which is sensitive to estrogen (ERα^+) was kindly provided by Dr. Sari Tojkander (Department of Veterinary Biosciences, Faculty of Veterinary Medicine, University of Helsinki). Cells were usually grown in T25 or T75 flasks containing DMEM with or without phenol red and supplemented with 7–10% FBS and 4 mM L-glutamine at 37°C in 5% CO2/95% humidified atmosphere. In order to eliminate the disturbing effect of hormones usually present in FBS, cell culture medium supplemented with commercially available charcoal-stripped FBS and 4 mM L-glutamine (SF medium) was used for experiments.
# The effect of EEDCs on the proliferation of MCF-7 cells was assessed as previously described by measuring the capacity of the cells in each well to reduce MTT reagent (Van Meeuwen et al. [2007]). Approximately 5000 cells/200 μL of SF medium containing DMEM without phenol red, 5% charcoal-stripped FBS, and 4 mM L-glutamine were seeded per well in a 96-well cell culture plate. On day 2, cells were treated with the SF medium containing test compounds or vehicle. The final concentration of the solvents DMSO and EtOH was lower than 0.1%. On day 5, the SF medium containing test compounds or vehicle were refreshed. On day 8, cells were washed with PBS twice and then incubated with the SF medium containing 1 mg/mL MTT reagent for 1 h. The ability of MCF-7 cells to reduce MTT was measured at the reference wavelength of 595 nm using a microplate reader (Multiskan Ascent, Thermo Fisher Scientific). All the exposures were in triplicate.
# The dose-response curves of test samples were plotted against logarithmic-transformed concentrations.
# MCF-7 cells [4] = experiment: In vitro micronucleus assay for cytokinesis block; assay type: cell-based, human; details: 24 h; for Micronuclei per 1000 binucleated cells, Replicates: single replicate values
# Protocol: The genotoxicity of EEDCs to MCF-7 cells was assessed by the in vitro micronucleus assay for cytokinesis block. MCF-7 cells were seeded at a density of 5×10^4/well in a 12-well plate in SF medium containing DMEM, 7% charcoal-stripped FBS and 4 mM L-glutamine. These cells were treated with test compounds or the positive control for 24 h. Then, cells were washed twice with PBS, treated with 2 μg/mL cytochalasin B, and incubated for 1.5–2 normal cell cycle lengths (~24 h for MCF-7 cells). Finally, cells were washed with PBS and fixed with 4% paraformaldehyde for 10–15 min (in PBS, pH 6.9). Before staining cells with 5% Giemsa stain for 20 min, plates were washed again with PBS and dried. The frequency of micronuclei per 1000 binucleated cells was counted for each well, and the ratio of micronucleus frequency in treated vs. control cells was defined as fold induction. Cells in mitosis were omitted.
smiles,measurement,setting,value
O=C([O-])C1=NN(c2ccc(S(=O)(=O)[O-])cc2)C(=O)C1N=Nc1ccc(S(=O)(=O)[O-])cc1.[Na+].[Na+].[Na+] (centres unmarked) [tartrazine],mutagenic or cytotoxic effects in mice,mice,did not elicit mutagenic or cytotoxic effects
same,EC50,estrogen receptor,160 nM
same,cytotoxicity to human lymphocytes,"human lymphocytes; 0.25–64 mM, ref Soares et al. [2015]",not cytotoxic
same,cytotoxicity to human lymphocytes,"human lymphocytes; 4 and 8 mM, ref Mpountoukas et al. [2010]",cytotoxic
same,maximum level of cytotoxicity (LDH release),MCF-7 cells [1],less than 2.5%
same,concentration range of estrogenic effect in vitro,[2],1 to 10000 pM
same,efficacy (maximum induction of cell growth) compared with 17β-estradiol,MCF-7 cells [3],about one third
same,EC50,"MCF-7 cells [3]; hormone-depleted medium, read-out: EC50 (proliferative effect)",7.46 nM
same,Fold (micronucleus frequency treated vs. control),MCF-7 cells [4]; 10^−7 M,2.81
same,"Micronuclei per 1000 binucleated cells, Average",MCF-7 cells [4]; 10^−7 M,29 per 1000 binucleated cells
same,"Micronuclei per 1000 binucleated cells, Replicates",MCF-7 cells [4]; 10^−7 M,29 per 1000 binucleated cells and 31 per 1000 binucleated cells and 27 per 1000 binucleated cells
same,Fold (micronucleus frequency treated vs. control),MCF-7 cells [4]; 10^−8 M,2.10
same,"Micronuclei per 1000 binucleated cells, Average",MCF-7 cells [4]; 10^−8 M,21.67 per 1000 binucleated cells
same,"Micronuclei per 1000 binucleated cells, Replicates",MCF-7 cells [4]; 10^−8 M,21 per 1000 binucleated cells and 19 per 1000 binucleated cells and 25 per 1000 binucleated cells
